Data reported in paper PMC10144058, “New Hybrid Scaffolds Based on 5-FU/Curcumin: Synthesis, Cytotoxic, Antiproliferative and Pro-Apoptotic Effect” (Pharmaceutics, 2023).
Where two headings read alike, the source gives them in different places.

Tests used:
SW480 cells [1] = assay: Cell death induction (Annexin-V/PI, flow cytometry); type: cell-based, human; settings: SW480, treated with IC50, 48 h
Description: For this method, 250,000 cells/well were initially seeded in 6-well culture plates during a 24 h adherence period at 37 °C in a 5% CO2 atmosphere. […] After treatment, cells were obtained by mechanical disaggregation, resuspended in a solution with Annexin-V-FLUOS and PI, and incubated for 20 min in the dark before flow cytometry analysis.

SW620 cells [2] = assay: Antiproliferative activity (SRB, 0-8 days); type: cell-based, human; settings: for viability at 1.25 µM / viability at 20 µM: Homo sapiens, read-out: Cell Viability (%) ± SE; for viability at 1.25 µM: SW620, 1.25 µM; for viability at 20 µM: SW620, 20 µM
Description: (§1) For this experiment, the same colorimetric method (SRB) from the evaluation of cell viability was used, although with some modifications. Initially, 2500 cells per well were seeded in 96-well culture plates, and a 24 h adherence period was performed at 37 °C in a 5% CO2 atmosphere. […] For this assay, incubation periods of 0, 2, 4, 6, and 8 days were used, and the fixation, staining, and reading conditions were the same as those previously described for the cytotoxicity assay.

SW620 cells [3] = assay: Cell viability, sulforhodamine B (SRB) assay; type: cell-based, human; settings: Homo sapiens
Description: (§2) SW480 (colon adenocarcinoma) and SW620 (derived metastatic) malignant cell lines, and the non-malignant lines HaCaT (human keratinocytes) and CHO-K1 (Chinese Hamster Ovary), were obtained from the European Collection of Authenticated Cell Cultures (ECACC, Porton Down, Salisbury, UK). The cells were maintained in Dulbecco’s Modified Eagle’s Medium (DMEM), supplemented with 10% equine serum previously inactivated at 56 °C, 1% penicillin/streptomycin, and 1% non-essential amino acids, and incubated at 37 °C in an atmosphere with 5% CO2. To carry out the experiments, the serum was diluted to 3% and additionally supplemented with […] insulin, […] transferrin, and 5 ng/mL selenium. Cells were used for experimentation when they reached 80–90% confluence, using a 1X trypsin enzymatic disintegration method. To avoid contamination by Mycoplasma spp., cell cultures were periodically analyzed by polymerase chain reaction (PCR).
(§3) Cell viability was evaluated with a sulforhodamine B (SRB) assay. This technique provides an index of protein contents in living and adherent cells, whose optical density can be related to cell concentration. Initially, 20,000 cells were seeded per well in 96-well culture plates. An initial adherence period of 24 h was performed at 37 °C, 5% CO2, and after this, the medium was replaced by another that contained the hybrid compounds in different concentrations. Then, the cells were left incubating for 24 and 48 h under the same conditions previously described. After the respective incubation times, the cells were fixed with trichloroacetic acid (50% v/v) for 1 h at 4 °C and stained with 0.4% (p/v) of SRB. Subsequently, washings with 1% acetic acid were carried out to eliminate possible nonspecific bindings, and after solubilization with 10 mM Tris-base, the absorbance was read at 492 nm in a microplate reader (Mindray MR-96A). All the experiments were carried out in triplicate.

HaCaT cells = assay: Cell viability, sulforhodamine B (SRB) assay, non-malignant cells; type: cell-based; settings: Homo sapiens
Description: as §2, §3

SW480 cells [4] = assay: Antiproliferative activity (SRB, 0-8 days); type: cell-based; settings: Homo sapiens, read-out: Cell Viability (%) ± SE; for viability at 0.625 µM: SW480, 0.625 µM; for viability at 10 µM: SW480, 10 µM
Description: as §1

[5] = tested on: caspase 3, caspase 7, caspase 8 and p53 in SW480 cells; assay: Apoptotic biomarkers (ELISA); type: cell-based, human; settings: SW480, treated with IC50, 48 h, vs control
Description: (§4) To provide an approach to the possible molecular mechanisms through which the hybrid compounds induce an effect on the cell lines, different proteins related to the process of death by apoptosis were determined. For this method, 1,000,000 cells were initially seeded per Petri dish, with an adherence period of 24 h at 37 °C in a 5% CO2 atmosphere. […] Later, the consumed medium was discarded, and after the addition of the versene buffer, the cells were obtained by mechanical disaggregation. The cells were then lysed with a cell lysis buffer and centrifuged to obtain the supernatant, which was used to determine the biomarkers of interest by enzyme-linked immunosorbent assays. These ELISA kits were provided by Elabscience Biotechnology Co., Houston, TX, USA [26].

[6] = tested on: caspase 3, caspase 7, caspase 8 and p53 in SW620 cells; assay: Apoptotic biomarkers (ELISA); type: cell-based, human; settings: SW620, treated with IC50, 48 h, vs control
Description: as §4

CHO-K1 cells = assay: Cell viability, sulforhodamine B (SRB) assay, non-malignant cells; type: cell-based, Chinese Hamster; settings: Cricetulus griseus
Description: as §2, §3

SW620 cells [7] = assay: Mitochondrial membrane potential (DiOC6/PI, flow cytometry); type: cell-based, human; settings: SW620, treated with IC50, 48 h
Description: (§5) The fluorescent dyes PI and DIOC6 (3,3’-dihexyloxacarbocyanine iodide) were used to observe the depolarization of the mitochondrial membrane as well as possible cell membrane damage. For this method, 250,000 cells/well were initially seeded in 6-well culture plates during a 24 h adherence period at 37 °C in a 5% CO2 atmosphere. […] After treatment, cells were obtained by mechanical disaggregation, stained with DiOC6 and PI, and incubated at room temperature for 30 min in the dark. Ten thousand events were analyzed by flow cytometry with excitation at 488 nm and emission detection with green (530/15 nm) and red (610/20 nm) filters.

SW480 cells [8] = assay: as above; type: cell-based, human; settings: SW480, treated with IC50, 48 h
Description: as §5

[9] = SW-620, 48 h, 2 days after plating
[10] = SW-620, 96 h, 4 days after plating
[11] = SW-620, 144 h, 6 days after plating
[12] = SW-620, 192 h, 8 days after plating

What does the source list for COc1cc(/C=C/C(=O)c2ccc(OCCCCCn3cc(Cn4cc(F)c(=O)[nH]c4=O)nn3)cc2)ccc1O [Compound 6d, (E)-5-fluoro-1-((1-(5-(4-(3-(4-hydroxy-3-methoxyphenyl)acryloyl)phenoxy)pentyl)-1H-1,2,3-triazol-4-yl)methyl)pyrimidine-2,4(1H,3H)-dione]?
Annexin V/PI quadrant Q3 (early apoptotic cells) (SW480 cells [1]): 50.2%; viability at 1.25 µM (SW620 cells [2]; [9]): 91 ± 2.85%; viability at 20 µM (SW620 cells [2]; [9]): 42.5 ± 4.57%; viability at 1.25 µM (SW620 cells [2]; [10]): 85.2 ± 3.23%; viability at 20 µM (SW620 cells [2]; [10]): 7.1 ± 0.95%; viability at 1.25 µM (SW620 cells [2]; [11]): 67.3 ± 2.32%; viability at 20 µM (SW620 cells [2]; [11]): 0%; viability at 1.25 µM (SW620 cells [2]; [12]): 54.4 ± 2.76%; viability at 20 µM (SW620 cells [2]; [12]): 0%; inhibition percentages (decrease in cell viability) (SW620 cells [2]; SW620, from 5 µM, day 2): higher than 30%; IC50 (SW620 cells [3]; SW-620, 24 h, 24 h): 37.1 ± 3.05 µM; IC50 (SW620 cells [3]; SW-620, 48 h, 48 h): 7.51 ± 1.47 µM; IC50 (HaCaT cells; 24 h): 42.6 ± 6.93 µM; IC50 (HaCaT cells; 48 h): 20.3 ± 2.66 µM; viability at 0.625 µM (SW480 cells [4]; 48 h, 2 days after plating): 90.1 ± 1.45%; viability at 10 µM (SW480 cells [4]; 48 h, 2 days after plating): 7.35 ± 1.45%; viability at 0.625 µM (SW480 cells [4]; 96 h, 4 days after plating): 55.5 ± 2.21%; viability at 10 µM (SW480 cells [4]; 96 h, 4 days after plating): 0.75 ± 0.2%; viability at 0.625 µM (SW480 cells [4]; 144 h, 6 days after plating): 46.36 ± 0.18%; viability at 10 µM (SW480 cells [4]; 144 h, 6 days after plating): 0.68 ± 0.14%; viability at 0.625 µM (SW480 cells [4]; 192 h, 8 days after plating): 32.3 ± 0.77%; viability at 10 µM (SW480 cells [4]; 192 h, 8 days after plating): 0%; levels of biomarkers (caspase 3, caspase 7, caspase 8, p53) [5]: no significant differences; levels of biomarkers (caspase 3, caspase 7, caspase 8, p53) [6]: no significant differences; IC50 (CHO-K1 cells; CHO-K1, 24 h): 12.4 ± 1.34 µM; IC50 (CHO-K1 cells; CHO-K1, 48 h): 28.1 ± 1.95 µM; Dioc6 High population (live cells with high membrane polarization) (SW620 cells [7]): 19.2%; Dioc6 Low population (cells that lose membrane polarization) (SW620 cells [7]): 0.11%; PI+ population (membrane damage or dead cells) (SW620 cells [7]): 76.1%; changes in the mitochondrial membrane potential (SW620 cells [7]): do not induce significant changes; Dioc6 High population (live cells with high membrane polarization) (SW480 cells [8]): 76.2%; Dioc6 Low population (cells that lose membrane polarization) (SW480 cells [8]): 0%; PI+ population (membrane damage or dead cells) (SW480 cells [8]): 23.7%; changes in the mitochondrial membrane potential (SW480 cells [8]): do not induce significant changes
